Data published in patent US9006440B2, “Furopyridine derivatives” (Merck Patent GmbH, priority 2010, dated 2015).
pIC50: −log10 of the molar value.

Key:
Assay type in all cases: biochemical
[1] = biological target: T1, Syk (Homo sapiens, UniProt P43405); test: Syk enzyme assay (SYK flash plate assay / Caliper mobility shift)
T1 construct: purchased BPS Bioscience, CA, USA
Protocol: The kinase assay is performed either as 384-well Flashplate assay (for e.g. Topcount measurement) or as 384-well Image-Flashplate assay (for LEADseeker measurement).
2.5 nM SYK, 400 nM Biotin-Aha-Aha-KEDPDYEWPSAKK
and 10 μM ATP (spiked with 0.3 μCi 33P-ATP/well) are incubated in a total volume of 50 μl (60 mM Hepes, 10 mM MgCl2, 1.2 mM Dithiothreitol, 0.02% Brij35, 0.1% BSA, pH 7.5) with or without test compound for 1 hours at 30° C. The reaction is stopped with 25 μl 200 mM EDTA. After 30 Min at 30° C. the liquid is removed and each well washed thrice with 100 μl 0.9% sodium chloride solution. Non-specific reaction is determined in presence of 0.1 μM Staurosporine. Radioactivity is measured with Topcount (when using Flashplates) or with LEADseeker (when using Image-Flashplates) respectively. Results (e.g. IC50-values) are calculated with program tools provided by the IT-department (e.g. Symyx Assay Explorer, Genedata Screener). Enzymatic Assays Using the Caliper LifeSciences Technology
(§1) The assays described here are performed on the Caliper Life Sciences LC3000 system This technology provides data on enzyme activity via measurement of the relative amounts of phosphorylated or unphosphorylated fluorescently labelled substrate peptide at the end of an enzymatic reaction. These different states of peptide are resolved by applying a potential difference across the sample. The presence of the charged phosphate group on the product (as opposed to the substrate) causes a different peptide mobility between the two peptides. This is visualized by excitation of the fluorescent label on the substrate and product peptides and represented as peaks within the analysis software.
(§2) In order to measure inhibitor activity of kinase inhibitors on this technology, a TTP Mosquito liquid handling instrument is used to place 0.25 ul of the appropriate concentration of inhibitor in 100% DMSO (for a dose response curve calculation) into each well of a 384-well plate. To this reaction components are added to a final volume of 25 ul. The table below indicates the sequences and concentrations for the assays described in this report. Standard components are 1 mM DTT (Sigma, D0632), 1 mM MgCl2 (Sigma, M1028), 100 mM HEPES pH 7.5 (Calbiochem, 391338), 0.015% Brij-35 (Sigma, B4184).
(§3) The reaction is incubated for 90 min at 25 C, and then stopped by the addition of 70 ul of Stop buffer (100 mM HEPES pH 7.5, 0.015% Brij-35, 10 mM EDTA (Sigma, E7889)).
(§4) The plate is read on a Caliper LC 3000 in an Off-Chip mobility shift assay format, on a 12-sipper chip. Unphosphorylated substrate and phosphorylated product peptide resolve as separate peaks allowing direct measurement of percentage of conversion of substrate to product. The percent conversion can be plotted against concentration of inhibitor to produce a sigmoidal dose response curve, from which an IC50 can be calculated using GeneData Condoseo or a similar product.

[2] = biological target: T2, KDR (Homo sapiens, UniProt P35968); test: KDR enzymatic assay (Caliper LifeSciences technology)
T2 construct: purchased BPS Bioscience, CA, USA
T2 sequence (P35968 20-1356): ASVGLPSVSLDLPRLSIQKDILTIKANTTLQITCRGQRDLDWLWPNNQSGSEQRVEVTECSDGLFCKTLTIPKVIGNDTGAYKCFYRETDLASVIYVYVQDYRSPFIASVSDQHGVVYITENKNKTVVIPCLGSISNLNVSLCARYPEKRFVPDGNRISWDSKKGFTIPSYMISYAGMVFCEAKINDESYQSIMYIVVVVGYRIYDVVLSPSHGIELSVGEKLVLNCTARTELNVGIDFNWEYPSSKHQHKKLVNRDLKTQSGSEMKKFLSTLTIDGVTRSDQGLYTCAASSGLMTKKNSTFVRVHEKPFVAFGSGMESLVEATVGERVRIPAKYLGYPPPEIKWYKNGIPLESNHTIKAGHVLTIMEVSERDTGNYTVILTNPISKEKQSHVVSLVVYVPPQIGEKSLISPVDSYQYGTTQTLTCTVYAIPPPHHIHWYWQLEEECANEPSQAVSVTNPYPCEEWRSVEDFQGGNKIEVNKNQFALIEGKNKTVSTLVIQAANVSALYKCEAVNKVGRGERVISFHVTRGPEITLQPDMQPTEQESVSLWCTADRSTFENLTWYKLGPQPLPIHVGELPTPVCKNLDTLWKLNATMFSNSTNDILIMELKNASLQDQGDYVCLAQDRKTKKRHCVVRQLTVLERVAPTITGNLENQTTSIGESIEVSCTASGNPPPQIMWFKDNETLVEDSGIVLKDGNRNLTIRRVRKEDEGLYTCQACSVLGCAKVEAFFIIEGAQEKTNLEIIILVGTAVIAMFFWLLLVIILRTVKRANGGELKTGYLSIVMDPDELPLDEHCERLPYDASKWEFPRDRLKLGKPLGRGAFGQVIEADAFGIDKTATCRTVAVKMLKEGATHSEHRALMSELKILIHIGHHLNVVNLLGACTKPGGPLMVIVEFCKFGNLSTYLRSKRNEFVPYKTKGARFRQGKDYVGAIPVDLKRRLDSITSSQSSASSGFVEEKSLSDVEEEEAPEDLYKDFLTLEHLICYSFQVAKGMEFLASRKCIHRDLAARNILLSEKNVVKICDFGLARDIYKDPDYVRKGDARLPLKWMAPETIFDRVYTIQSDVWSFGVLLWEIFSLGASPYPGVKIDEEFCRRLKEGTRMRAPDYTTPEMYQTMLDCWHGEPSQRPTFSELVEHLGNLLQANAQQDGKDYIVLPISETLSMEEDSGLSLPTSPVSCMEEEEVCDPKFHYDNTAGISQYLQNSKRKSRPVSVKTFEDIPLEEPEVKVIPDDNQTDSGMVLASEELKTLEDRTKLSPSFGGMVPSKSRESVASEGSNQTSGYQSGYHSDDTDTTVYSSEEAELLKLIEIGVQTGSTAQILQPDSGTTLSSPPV
Protocol: as §1, §2, §3, §4

[3] = biological target: T3, SRC (Homo sapiens, UniProt P12931); test: Src enzymatic assay (Caliper LifeSciences technology)
T3 construct: purchased Carna Bioscience, Kobe, Japan
T3 sequence (P12931 whole entry): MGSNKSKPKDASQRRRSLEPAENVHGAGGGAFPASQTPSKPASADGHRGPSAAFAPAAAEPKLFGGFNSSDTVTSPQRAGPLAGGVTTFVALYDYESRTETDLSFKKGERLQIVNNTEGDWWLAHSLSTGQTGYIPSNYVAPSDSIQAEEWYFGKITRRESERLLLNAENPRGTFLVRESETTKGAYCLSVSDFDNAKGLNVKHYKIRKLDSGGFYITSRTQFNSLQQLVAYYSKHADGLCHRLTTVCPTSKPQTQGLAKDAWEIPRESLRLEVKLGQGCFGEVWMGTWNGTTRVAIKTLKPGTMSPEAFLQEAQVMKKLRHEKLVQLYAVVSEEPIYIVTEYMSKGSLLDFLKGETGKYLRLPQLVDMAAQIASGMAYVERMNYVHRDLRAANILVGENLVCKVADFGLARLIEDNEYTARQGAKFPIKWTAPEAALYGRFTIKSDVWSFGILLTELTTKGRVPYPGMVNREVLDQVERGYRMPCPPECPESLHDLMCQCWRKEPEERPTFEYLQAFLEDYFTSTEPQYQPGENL
Protocol: as §1, §2, §3, §4

Row | Structure (SMILES) | pIC50 [1] | pIC50 [2] | pIC50 [3]
1 | COc1cc(-c2cc3nccc(-c4cccc(OCCN)c4)c3o2)cc(OC)c1OC [Compound A38, 2-{3-[2-(3,4,5-Trimethoxy-phenyl)-furo[3,2-b]pyridin-7-yl]-phenoxy}-ethylamine] | > 6.52 | 5.52 to 6.52 | 4.30 to 5.52
2 | Cc1cc(C)cc(-c2cc3nccc(Nc4ccc5[nH]ccc5c4C)c3o2)c1 [Compound B52, [2-(3,5-Dimethyl-phenyl)-furo[3,2-b]pyridin-7-yl]-(4-methyl-1H-indol-5-yl)-amine] | 5.52 to 6.52 | 5.52 to 6.52 | 5.52 to 6.52
3 | Cc1ccc(-c2cc3nccc(Nc4ccc5[nH]ccc5c4C)c3o2)cc1 [Compound B46, (4-Methyl-1H-indol-5-yl)-(2-p-tolyl-furo[3,2-b]pyridin-7-yl)-amine] | 4.30 to 5.52 | 5.52 to 6.52 | > 6.52
4 | COc1ccc(-c2cc3nccc(Nc4ccc5[nH]ccc5c4C)c3o2)c(OC)c1OC [Compound B56] | 5.52 to 6.52 | > 6.52 | > 6.52
5 | COc1ccc(-c2cc3nccc(-c4ccc(OC)c(OC)c4OC)c3o2)c(OC)c1OC [Compound B40, 2,7-Bis-(2,3,4-trimethoxy-phenyl)-furo[3,2-b]pyridine] | 5.52 to 6.52 | 5.52 to 6.52 | 4.30 to 5.52
6 | COc1ccc(-c2cc3nccc(Nc4ccc5[nH]ccc5c4C)c3o2)cc1C [Compound B50, [2-(4-Methoxy-3-methyl-phenyl)-furo[3,2-b]pyridin-7-yl]-(4-methyl-1H-indol-5-yl)-amine] | 5.52 to 6.52 | 5.52 to 6.52 | 5.52 to 6.52
7 | Cc1c(Nc2ccnc3cc(-c4ccc5c(c4)OCCO5)oc23)ccc2[nH]ccc12 [Compound B60, [2-(2,3-Dihydro-benzo[1,4]dioxin-6-yl)-furo[3,2-b]pyridin-7-yl]-(4-methyl-1H-indol-5-yl)-amine] | 5.52 to 6.52 | 5.52 to 6.52 | > 6.52
8 | COc1cc(-c2cc3nccc(-c4cccc(C(=O)N5CCC(N)C5)c4)c3o2)cc(OC)c1OC (centres unmarked) [Compound A67, (3-aminopyrrolidin-1-yl)-[3-[2-(3,4,5-trimethoxyphenyl)furo[3,2-b]pyridin-7-yl]phenyl]methanone] | 5.52 to 6.52 | – | 5.52 to 6.52
9 | Cc1c(Nc2ccnc3cc(-c4ccc(OCCCN(C)C)cc4)oc23)ccc2[nH]ccc12 [Compound B58, {2-[4-(3-Dimethylamino-propoxy)-phenyl]-furo[3,2-b]pyridin-7-yl}-(4-methyl-1H-indo-5-yl)-amine] | 5.52 to 6.52 | > 6.52 | > 6.52
10 | COc1cc(-c2cc3nccc(-c4cccc(CNC(C)=O)c4)c3o2)cc(OC)c1OC [Compound A52, N-[[3-[2-(3,4,5-trimethoxyphenyl)furo[3,2-b]pyridin-7-yl]phenyl]methyl]-acetamide] | > 6.52 | 4.30 to 5.52 | 4.30 to 5.52
11 | COc1cc(-c2cc3nccc(-c4cccc(NC(C)=O)c4)c3o2)cc(OC)c1OC [Compound B72, N-(3-(2-(3,4,5-Trimethoxyphenyl)furo[3,2-b]pyridin-7-yl)phenyl)acetamide] | 5.52 to 6.52 | – | 4.30 to 5.52
12 | COc1cc(-c2cc3nccc(Nc4ccc(Sc5nccn5C)c(Cl)c4)c3o2)cc(OC)c1OC [Compound B16, [3-Chloro-4-(1-methyl-1H-imidazol-2-ylsulfanyl)-phenyl]-[2-(3,4,5-trimethoxy-phenyl)-furo[3,2-b]pyridin-7-yl]-amine] | 4.30 to 5.52 | 4.30 to 5.52 | 4.30 to 5.52
13 | COc1ccc(-c2cc3nccc(Nc4ccc5[nH]ccc5c4C)c3o2)cc1 [Compound B47, [2-(4-Methoxy-phenyl)-furo[3,2-b]pyridin-7-yl]-(4-methyl-1H-indol-5-yl)-amine] | 4.30 to 5.52 | 5.52 to 6.52 | 5.52 to 6.52
14 | COc1cc(-c2cc3nccc(-c4cc(OC)c(OC)c(OC)c4)c3o2)cc(OC)c1OC [Compound B24, 2,7-Bis-(3,4,5-trimethoxy-phenyl)-furo[3,2-b]pyridine] | > 6.52 | 4.30 to 5.52 | 4.30 to 5.52
15 | COc1cc(-c2cc3nccc(-c4cccc(CN)c4)c3o2)cc(OC)c1OC [Compound A51, 3-[2-(3,4,5-Trimethoxy-phenyl)-furo[3,2-b]pyridin-7-yl]-benzylamine] | > 6.52 | 5.52 to 6.52 | 4.30 to 5.52
16 | Cc1c(Nc2ccnc3cc(-c4ccccc4)oc23)ccc2[nH]ccc12 [Compound B21, (4-Methyl-1H-indol-5-yl)-(2-phenyl-furo[3,2-b]pyridin-7-yl)-amine] | 5.52 to 6.52 | 5.52 to 6.52 | > 6.52
17 | Cc1noc(C)c1-c1cc2nccc(Nc3ccc4[nH]ccc4c3C)c2o1 [Compound B63, [2-(3,5-Dimethyl-isoxazol-4-yl)-furo[3,2-b]pyridin-7-yl]-(4-methyl-1H-indol-5-yl)-amine] | 5.52 to 6.52 | > 6.52 | > 6.52
18 | COc1cc(-c2cc3nccc(-c4cccc5[nH]ccc45)c3o2)cc(OC)c1OC [Compound A20, 7-(1H-Indol-4-yl)-2-(3,4,5-trimethoxy-phenyl)-furo[3,2-b]pyridine] | > 6.52 | 4.30 to 5.52 | 5.52 to 6.52
19 | COc1cccc(-c2cc3nccc(Nc4ccc5[nH]ccc5c4C)c3o2)c1OC [Compound B59, [2-(2,3-Dimethoxy-phenyl)-furo[3,2-b]pyridin-7-yl]-(4-methyl-1H-indol-5-yl)-amine] | 5.52 to 6.52 | > 6.52 | > 6.52
20 | COc1cc(-c2cc3nccc(-c4cccc(C(=O)NC5CCNC5)c4)c3o2)cc(OC)c1OC (centres unmarked) [Compound A66, N-pyrrolidin-3-yl-3-[2-(3,4,5-trimethoxyphenyl)furo[3,2-b]pyridin-7-yl]benzamide] | > 6.52 | – | 5.52 to 6.52
21 | CC(C)(O)c1ccc(-c2cc3nccc(-c4ccc(C(C)(C)O)cc4)c3o2)cc1 [Compound B45, 2-(4-{2-[4-(1-Hydroxy-1-methyl-ethyl)-phenyl]-furo[3,2-b]pyridin-7-yl}-phenyl)-propan-2-ol] | 5.52 to 6.52 | 5.52 to 6.52 | –
22 | COc1cc(-c2cc3nccc(-c4ccc(CN)cc4)c3o2)cc(OC)c1OC [Compound A53, 4-[2-(3,4,5-Trimethoxy-phenyl)-furo[3,2-b]pyridin-7-yl]-benzylamine] | > 6.52 | 5.52 to 6.52 | –

Second part, the compound after the results:

Row | pIC50 [1] | pIC50 [2] | pIC50 [3] | Structure (SMILES)
23 | > 6.52 | 5.52 to 6.52 | 5.52 to 6.52 | COc1cc(-c2cc3nccc(-c4cc(OC(F)(F)F)cc(C(=O)O)c4)c3o2)cc(OC)c1OC [Compound C163]
24 | > 6.52 | 5.52 to 6.52 | > 6.52 | COc1ccc(OC)c(-c2cc3nccc(-c4cccc(C(=O)N[C@@H]5CCCC[C@@H]5N)c4)c3o2)c1 [Compound C178]
25 | > 6.52 | 5.52 to 6.52 | 5.52 to 6.52 | COc1cc(-c2cc3nccc(-c4cc(OC(C)C)cc(C(=O)O)c4)c3o2)cc(OC)c1OC [Compound C155]
26 | 5.52 to 6.52 | 5.52 to 6.52 | 4.30 to 5.52 | COc1ccc(-c2cc3nccc(-c4ccccc4)c3o2)cc1NC(=O)[C@@H]1C[C@@H](O)CN1 [Compound C40]
27 | > 6.52 | 5.52 to 6.52 | 5.52 to 6.52 | COc1cc(-c2cc3nccc(-c4c[nH]nc4C)c3o2)cc(OC)c1OC [Compound C127]
28 | > 6.52 | – | 5.52 to 6.52 | COc1cc(-c2cc3nccc(-c4cc(O)cc(C(=O)NCCN)c4)c3o2)cc(OC)c1OC [Compound C149]
29 | > 6.52 | – | 4.30 to 5.52 | COc1cc(-c2cc3nccc(-c4cccc(C(=O)NCC5CCCN5)c4)c3o2)cc(OC)c1OC (centres unmarked) [Compound C11]
30 | > 6.52 | – | > 6.52 | COc1cc(C(=O)N[C@@H]2CCCC[C@@H]2N)cc(-c2ccnc3cc(-c4cc(OC)c(OC)c(OC)c4)oc23)c1 [Compound C170]
31 | > 6.52 | – | 5.52 to 6.52 | COc1ccc(OC)c(-c2cc3nccc(-c4cnn(C)c4)c3o2)c1 [Compound C140]
32 | > 6.52 | – | 4.30 to 5.52 | COc1cc(-c2cc3nccc(-c4c(F)cccc4OC)c3o2)cc(OC)c1OC [Compound C119]
